Experimental data reported in US9113629B2, “4-amino-6-(4-substituted-phenyl)-picolinates and 6-amino-2-(4-substituted-phenyl)-pyrimidine-4-carboxylates and their use as herbicides” (DOW AGROSCIENCES LLC, priority 2013, dated 2015).
Where two headings read alike, the source gives them in different places.

Tests used:
[1] = test system: Key Grass and Sedge Weeds as well as Grass Crops; assay: Post-emergent Test II herbicidal activity (Table 6); format: in vivo; conditions: post-emergence, 336 h; for pest or weed control at 70 g/ha: application rate 70 g ai/ha; for pest or weed control at 140 g/ha: application rate 140 g ai/ha
Summary of the method: (§1)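 Scoring: visual, 0–100% injury at 14 d versus untreated. Treatment: overhead track spray, 187 L/ha, onto plants at the first–second true leaf stage. Growth: greenhouse, ~15 h light, 23–29 °C day, 22–28 °C night.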

[2] = test system: Key Broadleaf Weed and Crop Species; assay: Post-emergent Test II herbicidal activity (Table 5); format: in vivo; conditions: post-emergence, 336 h, post-emergent, 14 days after application; for pest or weed control at 70 g/ha: 70 g ai/ha; for pest or weed control at 140 g/ha: 140 g ai/ha
Summary of the method: as §1

[3] = CYPES: yellow nutsedge (Cyperus esculentus), read-out: Visual Growth Reduction (%) 14 Days After Application, CYPES
[4] = DIGSA: crabgrass (Digitaria sanguinalis), read-out: Visual Growth Reduction (%) 14 Days After Application, DIGSA
[5] = ECHCG: barnyardgrass (Echinochloa crus-galli), read-out: Visual Growth Reduction (%) 14 Days After Application, ECHCG
[6] = ORYSA: rice (Oryza sativa), read-out: Visual Growth Reduction (%) 14 Days After Application, ORYSA
[7] = SETFA: giant foxtail (Setaria faberi), read-out: Visual Growth Reduction (%) 14 Days After Application, SETFA
[8] = SORVU: grain sorghum (Sorghum vulgare), read-out: Visual Growth Reduction (%) 14 Days After Application, SORVU
[9] = ZEAMX: maize, corn (Zea mays), read-out: Visual Growth Reduction (%) 14 Days After Application, ZEAMX
[10] = ABUTH: velvetleaf (Abutilon theophrasti), read-out: Visual Growth Reduction (%) 14 Days After Application ABUTH
[11] = AMARE: redroot pigweed (Amaranthus retroflexus), read-out: Visual Growth Reduction (%) 14 Days After Application AMARE
[12] = BRSNN: oilseed-rape, canola (Brassica napus), read-out: Visual Growth Reduction (%) 14 Days After Application BRSNN
[13] = CHEAL: lambsquarters (Chenopodium album), read-out: Visual Growth Reduction (%) 14 Days After Application CHEAL
[14] = EPHHL: wild poinsettia (Euphorbia heterophylla), read-out: Visual Growth Reduction (%) 14 Days After Application EPHHL
[15] = HELAN: sunflower (Helianthus annuus), read-out: Visual Growth Reduction (%) 14 Days After Application HELAN
[16] = VIOTR: wild pansy (Viola tricolor), read-out: Visual Growth Reduction (%) 14 Days After Application VIOTR

C=Cc1c(N)nc(-c2ccc(C#N)cc2F)nc1C(=O)OC [Compound 98, Methyl 6-amino-2-(4-cyano-2-fluorophenyl)-5-vinylpyrimidine-4-carboxylate]
0 to 29%: pest or weed control at 70 g/ha ([1]; Triticum aestivum, TRZSS (wheat), read-out: Visual Growth Reduction (%) 14 Days After Application, TRZSS) | pest or weed control at 70 g/ha [1, 3] | pest or weed control at 140 g/ha [1, 3] | pest or weed control at 70 g/ha [1, 4] | pest or weed control at 140 g/ha [1, 4] | pest or weed control at 70 g/ha [1, 5] | pest or weed control at 140 g/ha [1, 5] | pest or weed control at 70 g/ha [1, 6] | pest or weed control at 140 g/ha [1, 6] | pest or weed control at 70 g/ha [1, 7] | pest or weed control at 140 g/ha [1, 7] | pest or weed control at 70 g/ha [1, 8] | pest or weed control at 140 g/ha [1, 8] | pest or weed control at 140 g/ha ([1]; TRZSS (wheat, Triticum aestivum), read-out: Visual Growth Reduction (%) 14 Days After Application, TRZSS) | pest or weed control at 70 g/ha [1, 9] | pest or weed control at 140 g/ha [1, 9] | pest or weed control at 70 g/ha [2, 10] | pest or weed control at 140 g/ha [2, 10] | pest or weed control at 70 g/ha [2, 11] | pest or weed control at 140 g/ha [2, 11] | pest or weed control at 70 g/ha [2, 12] | pest or weed control at 140 g/ha [2, 12] | pest or weed control at 70 g/ha [2, 13] | pest or weed control at 140 g/ha [2, 13] | pest or weed control at 70 g/ha [2, 14] | pest or weed control at 140 g/ha [2, 14] | pest or weed control at 70 g/ha [2, 15] | pest or weed control at 140 g/ha [2, 15] | pest or weed control at 70 g/ha [2, 16] | pest or weed control at 140 g/ha [2, 16]
